{"source": "patent US12024518B1", "about": "“Pyrazolo[4,3-C][1,6]naphthyridines as CK2 inhibitors” (KING FAISAL UNIVERSITY, priority 2023, dated 2024)", "key": {"MCF7 (breast)": {"system": "MCF7 (breast)", "test": "In vitro cytotoxic activity (MTT) assay, MCF7", "assay_type": "cell-based", "details": "Homo sapiens; MCF7 (breast) cells, exposed for 96 hours, 50% inhibition of cell proliferation; read-out: Cytotoxicity activity IC50", "description": "(§1) Compounds 1-16 were screened for their in vitro cytotoxic activity utilizing a 3-(4,5-dimethyl-thiazol-2-yl)-2,5-diphenyltetrazolium bromide (MTT) assay against selected cancer human cell lines consisting of PC3 (prostate), HCT116 (colon), A375 (melanoma), H1299 (lung), MIAPaCa-2 (pancreas), HL60 (leukemia), MCF7 (breast), MDA-MB-231 (breast) (T. Mosmann, J. Immunol. Meth., 1983, 65, 55-63). The cells were cultured at 37° C. in RMPI1640 medium supplemented with 10% fetal bovine serum, 50 IU/mL penicillin, and 50 μg/mL streptomycin in a 5% CO2 incubator. All cells were sub-cultured 3 times/week by trypsinisation. Viable cells were seeded and allowed to adhere for 12 hours before a test drug was added in 96-well plates at an initial density of 1.0×10^5 cells/mL. Tumor cell lines were separately exposed to various concentrations of the tested compounds followed by incubation at a temperature of 37° C. during 96 hours inside a medium of fresh RMPI 1640. Cells were subsequently incubated at 37° C. using MTT at 0.5 mg/mL during 4 hours. After removal of supernatant, formazan crystals were dissolved in isopropanol and the optical density was measured at 570 nm. CX-4945 was used as a positive control."}, "[1]": {"target": "T1, recombinant human CK2 (RRββ-holoenzyme) (Homo sapiens, UniProt P68400)", "T1 construct": "purchased Millipore", "T1 sequence (P68400 whole entry)": "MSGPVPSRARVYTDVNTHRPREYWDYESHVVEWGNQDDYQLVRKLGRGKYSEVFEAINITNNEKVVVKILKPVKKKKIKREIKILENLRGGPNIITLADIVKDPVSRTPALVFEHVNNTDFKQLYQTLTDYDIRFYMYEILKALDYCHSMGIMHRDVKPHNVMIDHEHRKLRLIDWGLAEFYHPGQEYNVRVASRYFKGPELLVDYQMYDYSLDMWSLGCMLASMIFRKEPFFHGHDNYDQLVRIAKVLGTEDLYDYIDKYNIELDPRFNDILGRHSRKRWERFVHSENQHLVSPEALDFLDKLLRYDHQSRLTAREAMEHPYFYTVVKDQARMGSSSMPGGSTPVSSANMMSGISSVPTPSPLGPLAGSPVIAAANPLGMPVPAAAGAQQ", "T1 sequence (P67870 whole entry partner)": "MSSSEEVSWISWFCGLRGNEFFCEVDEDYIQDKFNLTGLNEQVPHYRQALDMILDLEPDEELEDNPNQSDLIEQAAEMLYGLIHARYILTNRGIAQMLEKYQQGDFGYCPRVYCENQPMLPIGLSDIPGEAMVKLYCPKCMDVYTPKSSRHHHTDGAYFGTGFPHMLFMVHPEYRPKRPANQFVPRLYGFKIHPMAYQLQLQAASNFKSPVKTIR", "test": "CK2 Kinase Assay (33P-ATP, substrate peptide RRRDDDSDDD)", "assay_type": "biochemical", "details": "final ATP concentration 15 μM, 10 min at 30° C., eight concentrations; read-out: protein kinase CK2 inhibition IC50", "description": "CK2 Kinase Assay was conducted using the protocol as described in Pierre F. et al; J. Med. Chem. 2011, 54, 635-654. The tested compounds in aqueous solution were added at a volume of 10 μL to a reaction mixture comprising 10 μL of assay dilution buffer (ADB; 20 mM MOPS, pH 7.2, 25 mM β-glycerol phosphate, 5 mM EGTA, 1 mM sodium orthovanadate, and 1 mM dithiothreitol), 10 μL of substrate peptide (RRRDDDSDDD, dissolved in ADB at a concentration of 1 mM), 10 μL of recombinant human CK2 (RRββ-holoenzyme, 25 ng dissolved in ADB; Millipore). Reactions were initiated by the addition of 10 μL of ATP solution (90% 75 mMMgCl2, 75 μM ATP (final ATP concentration: 15 μM) dissolved in ADB; 10% [γ-33P] ATP (stock 1 mCi/100 μL; 3000 Ci/mmol (Perkin-Elmer) and maintained for 10 min at 30° C. The reactions were quenched with 100 μL of 0.75% phosphoric acid and then transferred to and filtered through a phosphor cellulose filter plate (Millipore). After washing each well five times with 0.75% phosphoric acid, the plate was dried under vacuum for 5 min and, following the addition of 15 μL of scintillation fluid to each well, the residual radioactivity was measured using a Wallac luminescence counter. The IC50 values were derived from eight concentrations of test inhibitors."}, "HCT116 (colon)": {"system": "HCT116 (colon)", "test": "In vitro cytotoxic activity (MTT) assay, HCT116", "assay_type": "cell-based", "details": "Homo sapiens, HCT-116; HCT116 (colon) cells, exposed for 96 hours, 50% inhibition of cell proliferation; read-out: Cytotoxicity activity IC50", "description": "as §1"}, "A375 (melanoma)": {"system": "A375 (melanoma)", "test": "In vitro cytotoxic activity (MTT) assay, A375", "assay_type": "cell-based", "details": "Homo sapiens, A-375; A375 (melanoma) cells, exposed for 96 hours, 50% inhibition of cell proliferation; read-out: Cytotoxicity activity IC50", "description": "as §1"}, "PC3 (prostate)": {"system": "PC3 (prostate)", "test": "In vitro cytotoxic activity (MTT) assay, PC3", "assay_type": "cell-based", "details": "Homo sapiens; PC3 (prostate) cells, exposed for 96 hours, 50% inhibition of cell proliferation; read-out: Cytotoxicity activity IC50", "description": "as §1"}, "MDA-MB-231 (breast)": {"system": "MDA-MB-231 (breast)", "test": "In vitro cytotoxic activity (MTT) assay, MDA-MB-231", "assay_type": "cell-based", "details": "Homo sapiens; MDA-MB-231 (breast) cells, exposed for 96 hours, 50% inhibition of cell proliferation; read-out: Cytotoxicity activity IC50", "description": "as §1"}, "HL60 (leukemia)": {"system": "HL60 (leukemia)", "test": "In vitro cytotoxic activity (MTT) assay, HL60", "assay_type": "cell-based", "details": "Homo sapiens, HL-60; HL60 (leukemia) cells, exposed for 96 hours, 50% inhibition of cell proliferation; read-out: Cytotoxicity activity IC50", "description": "as §1"}, "H1299 (lung)": {"system": "H1299 (lung)", "test": "In vitro cytotoxic activity (MTT) assay, H1299", "assay_type": "cell-based", "details": "Homo sapiens, NCI-H1299; H1299 (lung) cells, exposed for 96 hours, 50% inhibition of cell proliferation; read-out: Cytotoxicity activity IC50", "description": "as §1"}, "MIAPaCa-2 (pancreas)": {"system": "MIAPaCa-2 (pancreas)", "test": "In vitro cytotoxic activity (MTT) assay, MIAPaCa-2", "assay_type": "cell-based", "details": "Homo sapiens, MIA PaCa-2; MIAPaCa-2 (pancreas) cells, exposed for 96 hours, 50% inhibition of cell proliferation; read-out: Cytotoxicity activity IC50", "description": "as §1"}}, "note": "pIC50: −log10 of the molar value."}
{"smiles": "O=C(O)c1n[nH]c2c1c(Nc1cccc(Cl)c1)nc1ccncc12", "note": "[Compound 1, 4-((3-chlorophenyl)amino)-1H-pyrazolo[4,3-c][1,6]naphthyridine-3-carboxylic acid]", "values": [{"measurement": "pIC50", "setting": "MCF7 (breast)", "value": 5.20}, {"measurement": "pIC50", "setting": "[1]", "value": 7.32}, {"measurement": "pIC50", "setting": "HCT116 (colon)", "value": 5.77}, {"measurement": "pIC50", "setting": "A375 (melanoma)", "value": 5.42}, {"measurement": "pIC50", "setting": "PC3 (prostate)", "value": 5.60}, {"measurement": "pIC50", "setting": "MDA-MB-231 (breast)", "value": 5.24}, {"measurement": "pIC50", "setting": "HL60 (leukemia)", "value": 5.54}, {"measurement": "pIC50", "setting": "H1299 (lung)", "value": 5.72}, {"measurement": "pIC50", "setting": "MIAPaCa-2 (pancreas)", "value": 5.85}]}
